Assay: In vivo pharmacokinetics of oral formulations in healthy human subjects
Description: The three dose levels included 25 mg (representative formulation listed in Table 1.2), 200 mg (representative formulation listed in Table 1.3) and 400 mg of the drug compound.

mean AUCinf values across formulations and food conditions (all doses (25 mg, 200 mg and 400 mg), fed or fasting): comparable | effect of food on the extent of bioavailability (human subjects, fed versus fasted): no significant effect | half-life (human, plasma, oral, all treatment regimens regardless of formulation and food intake, read-out: mean t1/2): 8 to 12 h
Structure (SMILES): Cc1ccc(C2O[C@H](CO)[C@@H](O)[C@H](O)[C@H]2O)cc1Cc1ccc(-c2ccc(F)cc2)s1 (stereo partly drawn) [compound of Formula (I-S)]

— US10617668B2, “Pharmaceutical formulations” (Janssen Pharmaceutica NV, priority 2010, dated 2020)
